Measured values reported in patent US20160151305A1, “AGENT OR METHOD FOR TREATEMENT AND/OR PREVENTION OF ACCELERATED ENERGY EXPENDITURE AND/OR DIMINISHED ENERGY EXPENDITURE FUNCTIONALITY” (MATSUTANI CHEMICAL INDUSTRY CO., LTD., priority 2013, published 2016).
Entries after “also recorded” stand apart in the source; their conditions may differ.

What was measured:
[1] = Sensory test by continuous administration of D-psicose in humans (interview); assay type: in vivo; conditions: for Changes: Body became easier to move (number of subjects) / Changes: Body felt lighter (number of subjects) / Changes: Body felt warmer (number of subjects) / Changes: Felt better (number of subjects) / Changes: Felt less fatigue (number of subjects) / Changes: No change (number of subjects): 5 healthy humans, once a day for 2 weeks, sample A = D-psicose 1.0 g, B = 2.5 g, C = 5.0 g
Description: The test was conducted for 5 healthy individuals with no smoking habit (average age of 35.0; 3 males and 2 females). Prior to the experiment, the subjects were fully informed of the experiment contents in line with the guidelines of the Declaration of Helsinki, and the experiment was conducted with the informed consent of all subjects. The subjects were each asked to continuously take sample A (D-psicose, 1.0 g), once a day for 2 weeks. The subjects were then interviewed to see if there was any physical changes. After 1 week, the same subjects were continuously given sample B (D-psicose, 2.5 g) for 2 weeks in the same manner as for sample A, and were interviewed again. The same procedure was repeated after 1 week by continuously giving sample C (D-psicose, 5.0 g) to the same subjects, followed by an interview.

[2] = Human tests, single D-psicose administration with pure carbohydrate food, energy expenditure; assay type: in vivo; conditions: humans
[3] = Metabolism test by single administration of D-psicose in humans (indirect calorimetry of breath); assay type: in vivo
Description: Effects of single administration of D-psicose on energy expenditure, carbohydrate combustion, and lipid combustion were examined in humans. Energy metabolism was calculated by indirect calorimetry from measurements of subjects' breath (oxygen consumption and carbon dioxide discharge). The test was conducted by a single-blinded crossover study of two groups of 6 healthy individuals with no smoking habit (average age of 34.8; 3 males and 3 females; average BMI 21.4 kg/m^2). Prior to the experiment, the subjects were fully informed of the experiment contents in line with the guidelines of the Declaration of Helsinki, and the experiment was conducted with the informed consent of all subjects. The subjects were fasted for 12 hours before starting the test, and were each given a test solution (150 ml) prepared by adding 5 g of D-psicose, or a test solution (150 ml) prepared by adding 10 mg of high sweetener aspartame to provide the same sweetness as control food. The concentration of the test solution was 3.3% for the D-psicose group, and 0.005% for the aspartame group. After giving the test solution, the subjects were given breakfast (hamburg steak with rice; total calorie: 571 kcal; protein 13.4%, lipid 25.3%, carbohydrate 61.3%). After the breakfast, the subjects were rested on the bed for 20 min in the resting supine position to acclimate to the environment, and the breath was measured with an Aero Monitor AE-310S (Minato Medical Science) connected to a breathing hood. The measurement was ended after 4 hours from the breakfast. During the measurement, the oxygen consumption and the carbon dioxide discharge of each subject were recorded every minute, and energy expenditure, carbohydrate combustion, and lipid combustion were calculated from the measured values using the Elwyn energy equation. Throughout the breath measurement, the subjects were rested on the bed in the resting supine position, and were kept awake and fasted. The results were divided by subject ‘ s body weights, and were represented as mean values and standard deviation. […]

[4] = Metabolism test by single oral administration of D-psicose in rats (indirect calorimetry); assay type: in vivo, male Sprague-Dawley rats; conditions: glucose+fructose+psicose (+Psi group) vs glucose+fructose (-Psi group), mean value every 12 minutes, FIG. 1
Excerpt: Effects of single oral administration of D-psicose on energy metabolism were examined using male Sprague-Dawley rats (7 weeks of age; purchased from CLEA Japan). The rats were preliminarily maintained for 1 week with a commercially available solid feed (CE-2; CLEA Japan), and were divided into 3 groups so as to be uniform in body weight upon measuring the body weight (each group contained eight rats).
The rats were individually put in a cage of a respiratory metabolism measurement system for small animals MK-5000 (Muromachi Kikai Co., Ltd.) at 16 o'clock on the day before a calorimetric test. The rats were measured by indirect calorimetry, and acclimated in the dark without food (dark period).
The rats were placed under a light at 10 o'clock next morning (light period). […] The solution concentrations are different to match total energy amounts. […] For the rest of the experiment, the rats were allowed access to only purified water, and the calorific value was continuously measured until 10 o'clock next day at 23° C. under light.
Resting energy metabolism (resting energy expenditure; hereinafter, “REE”, kcal/min) was calculated by using the Weir equation, and the result was divided by body weight (hereinafter, “BW”, in kg). The mean of measured values from 12 min to 60 min before the administration was regarded as a value at hour 0, and amounts of change were calculated over time. […]

[5] = Metabolism test by long-term administration of D-psicose in rats (hourly energy expenditure); assay type: in vivo, male Wistar rats; conditions: feed with 50.0 g/kg D-psicose + sucrose vs sucrose group, after 5 to 7 weeks, at hour 11 in the light period and hour 5 and 6 in the dark period, FIG. 2
Excerpt: Effects of long-term administration of D-psicose on energy metabolism were examined using male Wistar rats (3 weeks of age; purchased from Japan SLC). The rats were preliminarily maintained for 1 week with a commercially available powder feed (product name MF; Oriental Yeast Co., Ltd.), and were divided into 2 groups so as to be uniform in body weight upon measuring the body weight (each group contained eight rats). The two groups are a sucrose administered group, and a sucrose+D-psicose administered group.
The two groups of rats were allowed free access to experiment feed (Table 2) and water, and maintained under specific conditions (temperature 22±1° C., humidity 58±2%, light period 8:00 to 20:00, dark period 20:00 to 8:00 next morning). The energy metabolism was measured 5 to 7 weeks after the experiment feed was given. […] The rat breath and the room air were collected into a Douglas bag (Fukuda Sangyo) at 1-hour intervals, and the oxygen and carbon dioxide concentrations were measured with a gas concentration analyzers G-102 and LX-710 (Iijima Electronics Corporation) for 24 hours. The amounts of oxygen consumed by the rat, and the amount of generated carbon dioxide were calculated from the oxygen concentration and the carbon dioxide concentration in the breath, and the oxygen concentration and the carbon dioxide concentration in room air. […]

[6] = 5 g D-psicose immediately before lipid-containing breakfast vs aspartame control, 20 minutes to 4 hours from breakfast, FIG. 3

O=C(CO)[C@H](O)[C@H](O)[C@H](O)CO [A, D-psicose]
Changes: Body became easier to move (number of subjects) [1]: 1 | Changes: Body felt lighter (number of subjects) [1]: 1 | Changes: Body felt warmer (number of subjects) [1]: 1 | Changes: Felt better (number of subjects) [1]: 1 | Changes: Felt less fatigue (number of subjects) [1]: 1 | Changes: No change (number of subjects) [1]: 4 | interview result on repeat test ([1]; humans, sample A (D-psicose 1.0 g) again for 2 weeks, 1 week after testing with sample C): produced the same result

O=C(CO)[C@H](O)[C@H](O)[C@H](O)CO [B, D-psicose]
Changes: Body became easier to move (number of subjects) [1]: 2 | Changes: Body felt lighter (number of subjects) [1]: 3 | Changes: Body felt warmer (number of subjects) [1]: 3 | Changes: Felt better (number of subjects) [1]: 2 | Changes: Felt less fatigue (number of subjects) [1]: 2 | Changes: No change (number of subjects) [1]: 0

O=C(CO)[C@H](O)[C@H](O)[C@H](O)CO [C, D-psicose]
Changes: Body became easier to move (number of subjects) [1]: 3 | Changes: Body felt lighter (number of subjects) [1]: 5 | Changes: Body felt warmer (number of subjects) [1]: 5 | Changes: Felt better (number of subjects) [1]: 2 | Changes: Felt less fatigue (number of subjects) [1]: 2 | Changes: No change (number of subjects) [1]: 0

O=C(CO)[C@H](O)[C@H](O)[C@H](O)CO [D-psicose]
effect on energy expenditure [2]: did not have effect on energy expenditure | energy expenditure (REE) per body weight [3, 6]: significantly increased | lipid combustion (FEE) per body weight [3, 6]: significantly increased | energy metabolism result at lower dose ([3]; single D-psicose dose 2.4 g): did not show any difference | physical changes reported in interview ([1]; humans, continuous intake of 2.5 g or more of D-psicose for 2 weeks): The subjects all experienced some changes; also recorded: increase or improve body temperature and other sensations | AREE/BW (change of resting energy expenditure per body weight, water group subtracted) [4]: no significant difference | hourly energy expenditure per measured rat weight [5]: significantly higher
